This is an account of results in PMC9804910 (Chembiochem, 2022).

Data set [1] relates to CT‐26 cells. Description: Mito stress test (Seahorse, oxygen consumption rate). The class given is cell-based, mouse. Particulars: CT‐26, 24 h treatment; 1 (1 μM), 3 (5 μM), 4 (0.5 μM), 5 (10 μM), 6 (25 μM), 7 (10 μM), 8 (25 μM). The method, then: To further study the mechanism of action of complexes 3–8, their influence on the cellular metabolism of CT‐26 cells was investigated. Figure 6 represents the Mito stress test profile after 24 h of treatment; the oxygen consumption rate (OCR) changes with specific electron‐transport chain inhibitors. Oligomycin (inhibitor of ATP synthase (complex V)), FCCP (uncoupling agent), antimycin‐A (complex III inhibitors), and rotenone (complex I inhibitor) were employed in this study. In general, both cationic compounds 4 and 7 affected the mitochondrial processes. It is evident from the low basal respiration and the inhibition of ATP production compared to untreated cells (orange dots) that the mitochondrial membrane of the cells treated with such complexes lost the capacity to restore the proton balance when treated with an uncoupling agent (FCCP). The maximal respiration (the OCR value when the mitochondrial membrane is uncoupled) and spare respiratory capacity (difference in the OCR values between maximal respiration and basal respiration) of the cells were reduced compared to those of untreated cells (Figure 6). […] The results with complex 4 are consistent with its measured large mitochondrial uptake (see above).
Metabolic studies: mito stress test: CT‐26 cells were seeded in Seahorse XFe 96‐ well plates at a density of 20 000 cells/well in 80 μL of the medium. After 24 h, the medium was replaced with fresh medium, and either complex 1 (1 μM), 3 (5 μM), 4 (0.5 μM), 5 (10 μM), 6 (25 μM), 7 (10 μM), or 8 (25 μM) was added. After 24 h of incubation, the regular medium was removed, and cells were washed three times using Seahorse base media and incubated in a non‐CO2 incubator at 37 °C for 1 h. A Mito stress assay was run using 1 μM oligomycin, 1 μM FCCP, and a mixture of 1 μM antimycin‐A/1 μM rotenone in ports A−C, respectively, using a Seahorse XFe96 extracellular flux analyser.

For data set [2], the system named is RPE‐1 (human normal retina pigmented epithelial). The data set can be described thus: Fluorometric cell viability assay (Resazurin), 2D monolayer. The class given is cell-based. The conditions noted are these: RPE‐1, 48 h. As for the experimental part: (§1) The first step toward the biological investigation of complexes 3–8 was the evaluation of cell viability in monolayer cultures of CT‐26 (mouse colon adenocarcinoma), PC‐3 (human prostate adenocarcinoma), and RPE‐1 (human normal retina pigmented epithelial) cell lines using a fluorometric cell viability assay with the Resazurin reagent. Cisplatin and 1 were tested in the same cell lines as positive and additional controls.
(§2) Cell cultures: The CT‐26 cell line was cultured in DMEM media (Gibco) supplemented with 10 % foetal calf serum (Gibco) and 1 % penicillin‐streptomycin antibiotic (Gibco). The PC‐3 cell line was cultured in F12‐K media (Gibco) supplemented with 10 % foetal calf serum (Gibco) and 1 % Penicillin‐Streptomycin antibiotic (Gibco). The RPE‐1 cell line was cultured in DMEM/F‐12 media (Gibco) supplemented with 10 % foetal calf serum and 1 % Penicillin‐Streptomycin antibiotic (Gibco). Cell lines were maintained in a humidified atmosphere at 37 °C with 5 % CO2.
(§3) Cytotoxicity assay using a 2D cellular model: The cytotoxicity of the tested Ru complexes was assessed by a fluorometric cell viability assay using Resazurin (Acros Organics). Briefly, cells were seeded in triplicate in 96‐well plates at a 4×10^3 cells/ well density in 100 μL. After 24 h, cells were treated with increasing concentrations of the ruthenium complexes and controls. Dilutions for complexes 3–8 were prepared as follows: 10 mM stock solution in DMSO was diluted to 100–0.01 μM with medium. After 48 h of incubation, the medium was removed, and 100 μL of complete medium containing resazurin (0.2 mg/mL final concentration) was added. After 4 h of incubation at 37 °C, the fluorescence signal of the resorufin product was read (ex 540 nm, em 590 nm) in an Infinite 200 PRO Microplate Reader from TECAN. IC50 values were then calculated using GraphPad Prism software.

The test system of data set [3] is CT‐26 (mouse colon adenocarcinoma). The data set is described as above. The class given is cell-based. The conditions noted are these: for IC50: CT‐26, 48 h. The method, then: as §1, §2, §3
Data set [4] relates to PC‐3 (human prostate adenocarcinoma). The data set is described as above. The class given is cell-based. Particulars: PC‐3, 48 h. The method, then:
as §1, §2, §3

The next data set has as its system HeLa cells. Details: method as in PMID 32065454. The conditions noted are these: cited from earlier work.
Data set [5] has as its system CT‐26 cells. Description: Cellular fractionation (mitochondria and nucleus isolation, Ru content). The class given is cell-based, mouse. Particulars: CT‐26, 5 μM, 4 h. The method, then: Additionally, we choose the best candidate from the cytotoxicity experiments, namely [Ru(DIP)2(η^2‐acac)]Cl (4), to explore its cellular localisation. For this, we performed cellular fractionation experiments to ascertain in which organelle it localizes.
Sample preparation for cellular fractionation: CT‐26 cells were seeded in three 15 cm^2 cell culture dishes and cells were 90 % confluent on the day of treatment. On the day of treatment, cells were incubated with the target complex at a concentration of 5 μM for 4 h, then the medium was removed and the cells were washed, collected, and counted. After re‐suspension in cold PBS, the organelles were isolated by using different protocols (one cell culture dish per isolation was used).
Mitochondria and nucleus isolation : To isolate mitochondria, a Mitochondria Isolation Kit (Cat. Nr: MITOISO2, SigmaAldrich) and Nucleus Isolation Kit (NUC‐101) were used according to the manufacturer procedure for the isolation of mitochondria via homogenization method.

The test system of data set [6] is CT‐26 cells. Description: ICP‐MS cellular uptake. The data set is classed as cell-based, mouse. As for the experimental part:
The cellular uptake of the complexes 3–8 was then investigated in CT‐26 cells by determining the amount of Ru inside the cells using inductively coupled plasma mass spectrometry (ICP‐MS) after 2 h of incubation at 5 μM. […] This is most probably due to the higher lipophilicity of the DIP ligand compared to phen. […] In contrast, the neutral complexes with the DIP ligand (3 and 5) present a lower uptake (ca. 50 %) compared the phen analogues 6 and 8. This observation is rather counter‐intuitive since compounds 3 and 5 have a higher cytotoxicity than 6 and 8. The lower uptake of the DIP complexes 3 and 5 might be due to the lower solubility of these complexes in the cell culture medium. However, taken together, the uptake and cytotoxicity data imply that 3 and 5 have a higher specific cytotoxic activity compared to the phen analogues 6 and 8, reasonably attributable to their higher lipophilicity.
ICP‐MS cellular uptake studies: CT‐26 cells were seeded at a density of 1×10^6. The next day, cells were treated with 5 μM of the corresponding complex diluted in the cell culture medium from a 10 mM stock solution in DMSO. After 2 h, cells were collected, counted, and stored at −80 °C. ICP‐MS samples were prepared as follows: samples were digested using 70 % nitric acid (1 mL, 60 °C, overnight) and then further diluted 1 : 100 (1 % HCl solution in MQ water) analysed using ICP‐MS. All ICP‐MS measurements were performed on an Agilent 7900 Quadrupole ICP‐MS located at the Institut de Physique du Globe de Paris (France). The monitored isotopes are 99 and 101 Ru. Daily, before the analytical sequence, an indium internal‐standard was injected after inline mixing with the samples to correct for signal drift and matrix effects. A set of calibration standards was analysed to confirm and model (through simple linear regression) the linear relationship between signal and concentration. The model was then used to convert measured sample counts to concentrations. Reported uncertainties were calculated using error propagation equations and considering the combination of standard deviation on replicated consecutive signal acquisitions (n=3), internal‐standard ratio and blank subtraction. The non‐linear term (internal‐standard ratio) was linearized using a first‐order Taylor series expansion to simplify error propagation. The amount of metal detected in the cell samples was transformed from ppb to μg of metal. Data were subsequently normalized to the number of cells and expressed as μmol of metal/number of cells.

A short description of data set [7]: Stability in human plasma (UV-Vis and HPLC). The data set is classed as in vitro ADME. The conditions noted are these: 37 °C. As for the experimental part:
The biological activity of anticancer drugs candidates is strongly influenced by their stability in DMSO, medium cell culture, and human plasma. For this reason, we performed stability studies of complexes 3–8 at 37 °C in DMSO and DMEM medium (Gibco) (Supporting Information Figures S1 ‐ S2). […] Finally, the stability of the compounds was investigated by incubating them in human plasma at 37 °C for 48 h, followed by UV‐Vis and HPLC analysis. […] After 48 h, only 15 % of the complex was still intact, as observed by HPLC (Supporting Information Figure S5).
Stock solutions of each complex (2 mM) and caffeine (2 mM) were prepared in dimethyl sulfoxide. 50 μL of both stock solutions (complex and caffeine) were added to 400 μL of human plasma, achieving 500 μL. The resulting solutions were incubated upon continuous gentle shaking (ca. 300 rpm) for 48 h at 37 °C. After this time, the incubation was ended by adding 1 mL of methanol. The mixture was centrifuged for 45 min at 3000 rpm and 4 °C. The solution was filtered through a 0.2 μm membrane filter and submitted to HPLC analysis, that were carried out on a Jupiter Proteo column (250×4.6 mm, 4 μm, flow rate: 1 mL/min). The solvents (HPLC grade) were Millipore water (solvent A) and acetonitrile (solvent B). […] The flow rate was 1 mL min^−1, and the chromatogram was detected at 215 nm.

The subject of a further data set is different tumour cells. Details: method as in PMID 17199281. The conditions noted are these: cited from earlier work.
The subject of the next data set is cancer cells. Details: method as in PMID 25313823. The conditions noted are these: 2 h incubation; cited from earlier work.

The term IC50 denotes the midpoint of a concentration-inhibition curve. The low end stands for higher potency, the high end for lower potency. For `Cc1occc(=O)c1[O-].F[P-](F)(F)(F)(F)F.[Ru+2].c1ccc(-c2ccnc3c2ccc2c(-c4ccccc4)ccnc23)cc1.c1ccc(-c2ccnc3c2ccc2c(-c4ccccc4)ccnc23)cc1` [Compound 1, [Ru(DIP)2(mlt)](PF6), reference compound], in the data set with CT‐26 cells [1], the “effect on mitochondrial respiration (basal respiration, OCR profile) vs untreated cells” value (from here on “effect … vs untreated cells”) is “severe impairment of mitochondrial respiration”. Moreover, the values for the IC50 in data set [2], in [3] and in data set [4] were 0.67 ± 0.14 µM, 0.37 ± 0.12 µM and 1.84 ± 0.23 µM, respectively. The subcellular accumulation result in the data set with HeLa cells was “accumulate more in the nucleus than in mitochondria”.

`CC(=O)C=C(C)[O-].[Cl-].[Ru+2].c1ccc(-c2ccnc3c2ccc2c(-c4ccccc4)ccnc23)cc1.c1ccc(-c2ccnc3c2ccc2c(-c4ccccc4)ccnc23)cc1` [Compound 4, [Ru(DIP)2(η^2‐acac)]Cl]: in the data set with CT‐26 cells [5], the “fraction detected in the nucleus (of the total amount of Ru)” value is given as “ca. 10%” and the “localization in mitochondria (of the total amount of Ru)” value is “ca. 50%”. Further, the “cellular uptake compared to neutral DIP complexes 3 and 5” value with CT‐26 cells [6] (CT‐26) is “at least three times larger”. Further, in the data set with CT‐26 cells [6] (CT‐26, 5 μM, 2 h), the “cellular uptake compared to phen counterpart 7” value is “almost three times larger” and the “cellular uptake compared to reference complex 1” value was “ca. three times larger”. For the same compound, in the data set with CT‐26 cells [6] (CT‐26, 5 μM, 2 h incubation), the “cellular uptake (amount of Ru inside the cells)” value is on record as “most significant uptake”. In the data set with CT‐26 cells [1], the “effect … vs untreated cells” value is reported as “severe impairment of mitochondrial respiration”. In addition, the 50% inhibitory concentration (IC50) in [2] came to 0.5 ± 0.12 µM. This compound also came in with a half-maximal inhibitory concentration (IC50) in [3] of 0.41 ± 0.1 µM. Further, in data set [3] (from IC50 values, 48 h), the “selectivity towards CT‐26 and PC‐3 cancer cell lines compared to healthy cell line RPE‐1” value was “no selectivity”. This compound also yielded an IC50 in data set [4] of 0.62 ± 0.19 µM.

Consider `O=C([O-])C(=O)[O-].[Ru+2].c1ccc(-c2ccnc3c2ccc2c(-c4ccccc4)ccnc23)cc1.c1ccc(-c2ccnc3c2ccc2c(-c4ccccc4)ccnc23)cc1` [Compound 5, [Ru(DIP)2(η^2‐ox)]], for which, in the data set with CT‐26 cells [6] (CT‐26, 5 μM, 2 h), the “lower uptake compared to the phen analogues 6 and 8” value is on record as “ca. 50%”. Further, the results for the IC50 in data set [2], in [3] and in data set [4] were 14.5 ± 3 µM, 24.1 ± 2.5 µM and 21.1 ± 2.29 µM, respectively.

As to `O=C([O-])CC(=O)[O-].[Ru+2].c1cnc2c(c1)ccc1cccnc12.c1cnc2c(c1)ccc1cccnc12` [Compound 6, [Ru(phen)2(η^2‐mal)]], the “stability in human plasma (UV‐vis spectra and HPLC chromatograms before and after incubation)” value in data set [7] (48 h) is on record as “chemical transformation”. The “complex still intact (HPLC)” value in data set [7] (after 48 h) was 15%. Besides, the IC50 in data set [2], in data set [3] and in data set [4] was above 100 µM in each case.

Turning to `CC(=O)C=C(C)[O-].[Cl-].[Ru+2].c1cnc2c(c1)ccc1cccnc12.c1cnc2c(c1)ccc1cccnc12` [Compound 7, [Ru(phen)2(η^2‐acac)]Cl], in the data set on CT‐26 cells [1], the “effect … vs untreated cells” value is “severe impairment of mitochondrial respiration”. The IC50 in [2] was above 100 µM; in data set [3] it was 10.3 ± 0.74 µM; in [4], above 100 µM.

Take `O=C([O-])C(=O)[O-].[Ru+2].c1cnc2c(c1)ccc1cccnc12.c1cnc2c(c1)ccc1cccnc12` [Compound 8, [Ru(phen)2(η^2‐ox)]]: the 50% inhibitory concentration (IC50) in data set [2], in data set [3] and in [4] was above 100 µM in each case.

Turning to `[Ru+2].c1ccc(-c2ccnc3c2ccc2c(-c4ccccc4)ccnc23)cc1.c1ccc(-c2ccnc3c2ccc2c(-c4ccccc4)ccnc23)cc1.c1ccc2nc3c4cccnc4c4ncccc4c3nc2c1` [[Ru(DIP)2(dppz)]^2+], in the data set with different tumour cells, the “inhibition against tumour cells” value is listed as “low inhibition”.

`N.N.[Cl][Pt][Cl]` [cisplatin, reference compound]: the IC50 turned out to be 20.1 ± 3.91 µM in [2], 1.94 ± 0.72 µM in data set [3] and 10.3 ± 1.14 µM in data set [4].

[Ru(DIP)2(η^2‐mal)] [Compound 3]: the “lower uptake compared to the phen analogues 6 and 8” value in the data set with CT‐26 cells [6] (CT‐26, 5 μM, 2 h) is “ca. 50%”. Besides, the results for the IC50 in data set [2], in data set [3] and in [4] were 5 ± 0.7 µM, 5.63 ± 0.34 µM and 4.92 ± 0.33 µM, respectively.

[Ru(bpy)(phpy)(dppz)]^+: in the data set with cancer cells, the “complex accumulated in nuclei” value was around 90%.
